# Source: patent US11148999B2, “Nitric oxide donors” (MedChem Partners, LLC, priority 2016, dated 2021)
# Test system: not listed separately
# Experiment: Stability of the pure compound on storage
# Assay type: physicochemical
# Conditions: not given
row,Compound,stability of the pure compound
1,"CCCCCCCCCCC(=O)OCO/N=[N+](\[O-])N(CC)CC [Compound 506-3-111, (Z)-3,3-diethyl-1-((undecanoyloxy)methoxy)triaz-1-ene 2-oxide]",stable for over one year

# Test system: not listed separately
# Experiment: NO release in PBS versus rat plasma (Griess reaction)
# Assay type: in vitro ADME
# Conditions: 100 μM in PBS versus rat plasma, 37° C., readings at 0 minutes, 30 minutes, 3 hours; classified and ranked on NO release behavior
# Procedure: The compounds were dissolved in DMSO and added to PBS and then incubated at 37° C. NO release was measured using the Griess reaction at t=0, 30 minutes, and 3 hours. NO production in this assay was an indication of the hydrolytic instability of the capping group. […] Compounds were dissolved in DMSO and added to rat plasma and then incubated at 37° C. NO release was measured using the Griess reaction at t=0, 30 minutes, and 3 hours. Differences in the amount and rate of NO release reflect the kinetics of hydrolysis of the capping groups by proteases endogenous to the rat plasma. This experiment reflected the ability of compounds to release NO in vivo. For both panels A and B, the compounds tested are labelled as: 506-3-91 is Compound 31, 506-3-159 is Compound 33, 506-3-123 is Compound 32, 506-3-149 is Compound 30, 506-3-117 is Compound 26506-3-121 is Compound 29, 506-3-153 is Compound 27, 506-3-151 is Compound 28, 506-3-145 is Compound 7, 506-3-93 is Compound 10, 506-3-113 is Compound 4, 506-3-111 is Compound 11, 506-3-133 is Compound 12, 506-3-131 is Compound 13, 506-3-81 is Compound 14, 506-3-103 is Compound 18, 506-3-157 is Compound 19, 506-3-115 is Compound 9, 506-3-143 is Compound 6, and 506-3-147 is Compound 8. For all compounds, three time points are shown (left to right for each labelled compound): 0 time point, 30 minutes time point, and 3 hours time point.
# Compounds were tested for release of NO in PBS versus rat plasma using the Griess reaction. The Griess reaction works by the colorimetric measurement of nitrite levels which is the primary breakdown product of NO. To determine stability, as well as NO release behavior in a biological environment, the compounds were tested for NO release in both PBS and rat plasma at 37° C. […]
# Additional experiments were carried out to test the NO release capability of 100 μM of the compounds in PBS versus Rat Plasma. In these experiments, NO release kinetics was explored by taking readings at 0 minutes, 30 minutes, and 3 hours. The results are shown in FIG. 2, panels A and B. From these studies, the compounds were classified and ranked based on their NO release behavior as shown in the Table below.
row,Compound,Release Behavior
1,"CCN(CC)/[N+]([O-])=N/OCN1C(=O)c2ccccc2C1=O [Compound 506-3-81, (Z)-1-((1,3-dioxoisoindolin-2-yl)methoxy)-3,3-diethyltriaz-1-ene 2-oxide]",unstable
2,"O=C1c2ccccc2C(=O)N1CO/N=[N+](\[O-])N1CCCC1CO (stereo not shown) [Compound 506-3-91, (Z)-2-((1,3-dioxoisoindolin-2-yl)methoxy)-1-(2-(hydroxymethyl)pyrrolidin-1-yl)diazene oxide]",unstable
3,"CCN(CC)/[N+]([O-])=N/OCOC(=O)C(C)(C)NC(=O)OC(C)(C)C [Compound 506-3-93, (Z)-3-ethyl-10,10,14,14-tetramethyl-9,12-dioxo-6,8,13-trioxa-3,4,5,11-tetraazapentadec-4-ene 4-oxide]",slow/low release
4,"CCN(CC)/[N+]([O-])=N/OCSC [Compound 506-3-103, (Z)-3,3-diethyl-1-((methylthio)methoxy)triaz-1-ene 2-oxide]",slow/low release
5,"CCCCCCCCCCC(=O)OCO/N=[N+](\[O-])N(CC)CC [Compound 506-3-111, (Z)-3,3-diethyl-1-((undecanoyloxy)methoxy)triaz-1-ene 2-oxide]",quick/long release
6,"CCN(CC)/[N+]([O-])=N/OCOC(=O)[C@@H](NC(=O)OC(C)(C)C)C(C)C [Compound 506-3-113, (S,Z)-3-ethyl-10-isopropyl-14,14-dimethyl-9,12-dioxo-6,8,13-trioxa-3,4,5,11-tetraazapentadec-4-ene 4-oxide]",slow onset
7,"CCC(CC)C(=O)OCO/N=[N+](\[O-])N(CC)CC [Compound 506-3-115, (Z)-3,3-diethyl-1-(((2-ethylbutanoyl)oxy)methoxy)triaz-1-ene 2-oxide]",slow onset
8,"CC(C)(C)C(=O)OCO/N=[N+](\[O-])N1CCCC1CO (stereo not shown) [Compound 506-3-117, (Z)-1-(2-(hydroxymethyl)pyrrolidin-1-yl)-2-((pivaloyloxy)methoxy)diazene oxide]",steady
9,"CC(C)OC(=O)OCO/N=[N+](\[O-])N1CCCC1CO (stereo not shown) [Compound 506-3-121, (Z)-1-(2-(hydroxymethyl)pyrrolidin-1-yl)-2-(((isopropoxycarbonyl)oxy)methoxy)diazene oxide]",slow/low release
10,"CSCO/N=[N+](\[O-])N1CCCC1CO (stereo not shown) [Compound 506-3-123, (Z)-1-(2-(hydroxymethyl)pyrrolidin-1-yl)-2-((methylthio)methoxy)diazene oxide]",slow/low release

# Continued, values first:
row,Release Behavior,Compound
1,steady/low,"CCN(CC)/[N+]([O-])=N/OC(C)OC(=O)OC(C)C (stereo not shown) [Compound 506-3-131, (Z)-3-ethyl-7,11-dimethyl-9-oxo-6,8,10-trioxa-3,4,5-triazadodec-4-ene 4-oxide]"
2,unstable,"CCN(CC)/[N+]([O-])=N/OC(C)OC(=O)OC(C)(C)C (stereo not shown) [Compound 506-3-133, (Z)-3-ethyl-7,11,11-trimethyl-9-oxo-6,8,10-trioxa-3,4,5-triazadodec-4-ene 4-oxide]"
3,intermediate,"CCCC(=O)OCO/N=[N+](\[O-])N(CC)CC [Compound 506-3-143, (Z)-1-((butyryloxy)methoxy)-3,3-diethyltriaz-1-ene 2-oxide]"
4,steady,"CCN(CC)/[N+]([O-])=N/OCOC(=O)c1ccccc1 [Compound 506-3-145, (Z)-1-((benzoyloxy)methoxy)-3,3-diethyltriaz-1-ene 2-oxide]"
5,slow onset,"CCC(CC)C(=O)OCO/N=[N+](\[O-])N1CCCC1CO (stereo not shown) [Compound 506-3-149, (Z)-2-(((2-ethylbutanoyl)oxy)methoxy)-1-(2-(hydroxymethyl)pyrrolidin-1-yl)diazene oxide]"
6,slow onset,"O=C(OCO/N=[N+](\[O-])N1CCCC1CO)c1ccccc1 (stereo not shown) [Compound 506-3-151, (Z)-2-((benzoyloxy)methoxy)-1-(2-(hydroxymethyl)pyrrolidin-1-yl)diazene oxide]"
7,steady/low,"CCCC(=O)OCO/N=[N+](\[O-])N1CCCC1CO (stereo not shown) [Compound 506-3-153, (Z)-2-((butyryloxy)methoxy)-1-(2-(hydroxymethyl)pyrrolidin-1-yl)diazene oxide]"
8,slow/low release,"CCN(CC)/[N+]([O-])=N/OC[S+](C)[O-] (stereo not shown) [Compound 506-3-157, (Z)-3,3-diethyl-1-((methylsulfinyl)methoxy)triaz-1-ene 2-oxide]"
9,slow/low release,"C[S+]([O-])CO/N=[N+](\[O-])N1CCCC1CO (stereo not shown) [Compound 506-3-159, (Z)-1-(2-(hydroxymethyl)pyrrolidin-1-yl)-2-((methylsulfinyl)methoxy)diazene oxide]"

# Test system: diabetic Lep/r-db/db mice
# Experiment: Initial dose range wound healing study, murine diabetic wound model, PVA gel
# Assay type: in vivo
# Conditions: PVA gel with 10, 50, 100 uM test article versus PVA gel alone, applied twice a day, day 7, 1-cm^2 full-thickness wound
# Procedure: A murine diabetic wound model for utilized to test the ability of the gel formulation of the invention to accelerate wound healing. Specifically, diabetic Lep/r-db/db mice were used to study the effects of the gel formulation on granulation tissue thickness, density of α-smooth muscle actin-positive myofibroblasts, wound healing kinetics, blood vessel density, cell proliferation, and tissue ingrowth.
# An initial dose range study was performed to study the effects of the compounds of the invention on wound healing. Five homozygous diabetic 8-12 weeks old, Lep/r-db/db male mice (strain C57BL/KsJ-Leprdb) were anesthetized with 60 mg/kg pentobarbital and disinfected with 70% alcohol. Subsequently, a 1-cm^2 full-thickness wound was excised on the dorsa of the mice. The mice were then treated with either PVA gel containing no test article (Control), PVA gel containing test article (i.e., compound 506-3-111) at 10 uM concentration, PVA gel containing test article at 50 uM concentration, or PVA gel containing test article at 100 uM concentration. Immediately after wounding, the experimental groups had the NO releasing gel material applied to the wound twice a day and the control group had only the un-medicated gel applied to the wound. Dressing changes were performed twice daily. […]
row,Compound,wound size
1,"CCCCCCCCCCC(=O)OCO/N=[N+](\[O-])N(CC)CC [Compound 506-3-111, (Z)-3,3-diethyl-1-((undecanoyloxy)methoxy)triaz-1-ene 2-oxide]",clear dose dependent reduction in wound size

# Same assay, conditions: PVA gel, 10 to 100 uM, topical twice a day, 7 days
row,Compound,tolerability (adverse effects or toxicity)
1,"CCCCCCCCCCC(=O)OCO/N=[N+](\[O-])N(CC)CC [Compound 506-3-111, (Z)-3,3-diethyl-1-((undecanoyloxy)methoxy)triaz-1-ene 2-oxide]",well tolerated with no adverse effects or toxicity even at the highest dose
